Columns and labels:
H460 cells = assay: Inhibition of KRas-mediated phosphorylation of ERK (Cisbio HTRF pERK), H460 cells; assay type: cell-based; settings: Homo sapiens, NCI-H460, 3 h, 3 hr compound incubation, Cisbio pERK HTRF
KRas G12C = KRas G12C (Homo sapiens, UniProt P01116, G12C); assay type: binding; settings: TR-FRET displacement, read-out: Binding to KRas (IC50 nM) G12C
PSN1 cells = assay: Inhibition of KRas-mediated phosphorylation of ERK (Cisbio HTRF pERK), PSN1 cells; assay type: cell-based; settings: Homo sapiens, PSN1, 3 h, 3 hour compound incubation, Cisbio pERK HTRF
Summary of the method: (§1)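 Phospho-ERK signal measured by HTRF after cells had been plated at 6,000/well in RPMI supplemented with 10% FBS on day 1.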

ASPC1 cells = assay: Inhibition of KRas-mediated phosphorylation of ERK (Cisbio HTRF pERK), ASPC1 cells; assay type: cell-based; settings: Homo sapiens, ASPC1, 3 h, AsPC-1 cells; 3 hr compound incubation; Cisbio pERK HTRF
KRas G12S = KRas G12S (Homo sapiens, UniProt P01116, G12S); assay type: binding; settings: TR-FRET displacement, read-out: Binding to KRas (IC50 nM) G12S
KRas G12S, sequence (P01116 1-169 isoform P01116-2 G12S): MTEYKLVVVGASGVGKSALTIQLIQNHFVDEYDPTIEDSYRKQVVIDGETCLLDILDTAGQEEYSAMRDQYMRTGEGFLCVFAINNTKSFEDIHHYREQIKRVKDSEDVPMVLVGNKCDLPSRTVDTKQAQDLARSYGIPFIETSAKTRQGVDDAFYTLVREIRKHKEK

H727 cells = assay: Inhibition of KRas-mediated phosphorylation of ERK (Cisbio HTRF pERK), H727 cells; assay type: cell-based; settings: Homo sapiens, NCI-H727, 3 h, 3 hr compound incubation, Cisbio pERK HTRF
KRas G12D = KRas G12D (Homo sapiens, UniProt P01116, G12D); assay: biochemical; settings: Binding to KRas (IC50 nM) G12D, TR-FRET displacement, KRas G12D
KRas G12D, sequence (P01116 1-169 isoform P01116-2 G12D): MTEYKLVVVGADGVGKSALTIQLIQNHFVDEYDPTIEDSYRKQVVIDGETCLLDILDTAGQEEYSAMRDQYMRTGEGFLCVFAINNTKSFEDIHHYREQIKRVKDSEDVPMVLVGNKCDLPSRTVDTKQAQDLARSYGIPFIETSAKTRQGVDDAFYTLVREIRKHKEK

H358 cells = assay: Inhibition of KRas-mediated phosphorylation of ERK (Cisbio HTRF pERK), H358 cells; assay type: cell-based; settings: Homo sapiens, NCI-H358, 3 h, 3 hr compound incubation, Cisbio pERK HTRF
MKN1 cells = assay: Inhibition of KRas-mediated phosphorylation of ERK (Cisbio HTRF pERK), MKN1 cells; assay type: cell-based; settings: Homo sapiens, MKN-1, 3 hour compound incubation, Cisbio pERK HTRF
Summary of the method: as §1

A549 cells = assay: Inhibition of KRas-mediated phosphorylation of ERK (Cisbio HTRF pERK), A549 cells; assay type: cell-based; settings: Homo sapiens, A549, 3 h, 3 hr compound incubation, Cisbio pERK HTRF
KRas WT = KRas WT (Homo sapiens, UniProt P01116); assay: KRas binding assay (TR-FRET displacement), KRas WT; settings: TR-FRET displacement
KRas WT, sequence (P01116 1-169 isoform P01116-2): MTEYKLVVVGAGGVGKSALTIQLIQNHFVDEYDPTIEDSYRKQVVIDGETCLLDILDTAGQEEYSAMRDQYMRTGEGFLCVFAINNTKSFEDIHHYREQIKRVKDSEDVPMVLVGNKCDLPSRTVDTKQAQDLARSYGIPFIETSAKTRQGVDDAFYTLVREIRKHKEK

HCT116 cells = assay: Inhibition of KRas-mediated phosphorylation of ERK (Cisbio HTRF pERK), HCT116 cells; assay type: cell-based; settings: Homo sapiens, HCT-116, 3 h, 3 hr compound incubation, Cisbio pERK HTRF
KRas G12V = KRas G12V (Homo sapiens, UniProt P01116, G12V); assay: biochemical; settings: Binding to KRas (IC50 nM) G12V, TR-FRET displacement, KRas G12V
KRas G12V, sequence (P01116 1-169 isoform P01116-2 G12V): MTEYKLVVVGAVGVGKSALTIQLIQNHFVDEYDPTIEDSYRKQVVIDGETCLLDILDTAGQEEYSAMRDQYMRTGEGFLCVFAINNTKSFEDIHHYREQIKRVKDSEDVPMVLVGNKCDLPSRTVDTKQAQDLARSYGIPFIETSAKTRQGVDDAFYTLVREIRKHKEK

KRas G12C, sequence (P01116 1-169 isoform P01116-2 G12C): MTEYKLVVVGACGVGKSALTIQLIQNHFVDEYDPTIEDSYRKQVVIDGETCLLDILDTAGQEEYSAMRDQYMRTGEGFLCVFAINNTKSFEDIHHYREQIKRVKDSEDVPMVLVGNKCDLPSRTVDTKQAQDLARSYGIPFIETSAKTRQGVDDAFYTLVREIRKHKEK

Row | SMILES | IC50 (H460 cells) [nM] | IC50 (KRas G12C) [nM] | IC50 (PSN1 cells) [nM] | IC50 (ASPC1 cells) [nM] | IC50 (KRas G12S) [nM] | IC50 (H727 cells) [nM] | IC50 (KRas G12D) [nM] | IC50 (H358 cells) [nM] | IC50 (MKN1 cells) [nM] | IC50 (A549 cells) [nM] | IC50 (KRas WT) [nM] | IC50 (HCT116 cells) [nM] | IC50 (KRas G12V) [nM]
1 | CCc1c(F)ccc2cc(O)cc(N3CCc4c(nc(OCC56CCCN5C/C(=C\F)C6)nc4N4C[C@@H]5C[C@H](C4)[C@H](O)C5)C3)c12 (stereo partly drawn) [Example 576, (1R,5R,6R)-3-(7-(8-ethyl-7-fluoro-3-hydroxynaphthalen-1-yl)-2-(((Z)-2-(fluoromethylene)tetrahydro-1H-pyrrolizin-7a(5H)-yl)methoxy)-5,6,7,8-tetrahydropyrido[3,4-d]pyrimidin-4-yl)-3-azabicyclo[3.2.1]octan-6-ol] | 57 | 3 | 2760 | 88 | < 2 | 57 | 4 | 49 | 5.8 | 61 | 3 | 137 | < 2
2 | CCc1c(F)ccc2cc(O)cc(N3CCc4c(nc(OCC56CCCN5C/C(=C\F)C6)nc4N4CCC[C@]5(C4)NC(=O)NC5=O)C3)c12 (stereo partly drawn) [Example 577, (5R)-7-(7-(8-ethyl-7-fluoro-3-hydroxynaphthalen-1-yl)-2-(((Z)-2-(fluoromethylene)tetrahydro-1H-pyrrolizin-7a(5H)-yl)methoxy)-5,6,7,8-tetrahydropyrido[3,4-d]pyrimidin-4-yl)-1,3,7-triazaspiro[4.5]decane-2,4-dione] | 1 | < 2 | 7 | 2 | < 2 | 6 | < 2 | 1 | 0.1 | 1 | < 2 | 2 | < 2
3 | C=C1CN2CC(=C)CC2(COc2nc3c(c(N4C[C@@H]5C[C@H](C4)[C@H](O)C5)n2)CCN(c2cc(O)cc4ccc(F)c(CC)c24)C3)C1 [Example 579, (1R,5R,6R)-3-(2-((2,6-dimethylenetetrahydro-1H-pyrrolizin-7a(5H)-yl)methoxy)-7-(8-ethyl-7-fluoro-3-hydroxynaphthalen-1-yl)-5,6,7,8-tetrahydropyrido[3,4-d]pyrimidin-4-yl)-3-azabicyclo[3.2.1]octan-6-ol] | 227 | 4 | > 10000 | 699 | 3 | 513 | 7 | 204 | 18.3 | 168 | 4 | 968 | 2

Next, values leading:

Row | IC50 (H460 cells) [nM] | IC50 (KRas G12C) [nM] | IC50 (PSN1 cells) [nM] | IC50 (ASPC1 cells) [nM] | IC50 (KRas G12S) [nM] | IC50 (H727 cells) [nM] | IC50 (KRas G12D) [nM] | IC50 (H358 cells) [nM] | IC50 (MKN1 cells) [nM] | IC50 (A549 cells) [nM] | IC50 (KRas WT) [nM] | IC50 (HCT116 cells) [nM] | IC50 (KRas G12V) [nM] | SMILES
4 | 12 | < 2 | 442 | 13 | < 2 | 25 | < 2 | 5 | 0.4 | 16 | < 2 | 18 | < 2 | CCc1c(F)ccc2cc(O)cc(N3CCc4c(nc(OCC56CCCN5C/C(=C\F)C6)nc4N4CCC[C@@](C)(O)C4)C3)c12 (stereo partly drawn) [Example 574, (3R)-1-(7-(8-ethyl-7-fluoro-3-hydroxynaphthalen-1-yl)-2-(((Z)-2-(fluoromethylene)tetrahydro-1H-pyrrolizin-7a(5H)-yl)methoxy)-5,6,7,8-tetrahydropyrido[3,4-d]pyrimidin-4-yl)-3-methylpiperidin-3-ol]
5 | 7 | < 2 | 1040 | 1 | < 2 | 2 | < 2 | 1 | 0.3 | 4 | < 2 | 36 | < 2 | CCc1c(F)ccc2cc(O)cc(N3CCc4c(nc(OCC56CCCN5C/C(=C\F)C6)nc4N4CCCn5nc(C(=O)N(C)C)cc5C4)C3)c12 (centres unmarked) [Example 578, (Z)-5-(7-(8-ethyl-7-fluoro-3-hydroxynaphthalen-1-yl)-2-((2-(fluoromethylene)tetrahydro-1H-pyrrolizin-7a(5H)-yl)methoxy)-5,6,7,8-tetrahydropyrido[3,4-d]pyrimidin-4-yl)-N,N-dimethyl-5,6,7,8-tetrahydro-4H-pyrazolo[1,5-a][1,4]diazepine-2-carboxamide]

From US20250368649A1, “TETRAHYDROPYRIDOPYRIMIDINE PAN-KRAS INHIBITORS” (Mirati Therapeutics, Inc., priority 2022, published 2025)
